{
  "source": "patent US8936808B1",
  "about": "“Opioid agonist/opioid antagonist/acetaminophen combinations” (Purdue Pharma L.P., priority 1997, dated 2015)",
  "key": {"[1]": {"tested_on": "effects of morphine-like opioid agonist / heroin", "conditions": "cited from earlier work"}, "[2]": {"conditions": "cited from earlier work"}, "[3]": {"format": "in vivo", "excerpt": "In certain other preferred embodiments, the opioid included in the dosage form is a different orally active opioid agonist than hydrocodone. […] Equianalgesic dosages of various opioid analgesics are provided below, and are otherwise known to those skilled in the art, e.g, from Foley, K. “The Treatment of Cancer Pain;” N. Engl.\nIn certain preferred embodiments, the opioid agonist is hydrocodone. Equianalgesic doses of the remaining opioids mentioned herein (and others) are known to those skilled in the art."}, "[4]": {"conditions": "cited from earlier work", "remark": "listed apart in the source"}, "[5]": {"conditions": "cited from earlier work", "remark": "listed apart in the source"}, "[6]": {"tested_on": "opioid agonist properties of hydrocodone", "assay": "Example 1: naltrexone antagonism of hydrocodone 15 mg (VAS drug effect, pupillometry), four-way crossover study", "method": "All treatments were administered under fasted conditions. […] Subjects were randomly assigned to four treatment sequences of the four treatment groups. […] Safety measurements consisted of reports of adverse events, vital signs, abnormal laboratory values, abnormal physical examination and ECG results. Pharmacodynamic parameters (pupil size and Modified Specific Drug Effect Questionnaire) were also assessed.\nPupil Size—Measured by Pupillometry.\nThe camera was centered in front of the subject's face with 3 inch frame against the lateral orbital rims and the eyes occupying the very top of the field (to minimize upgaze). The subject was asked to look just over the camera body and to fixate on a non-accommodative target in the distance, thereby minimizing the near reflex. With the volunteer fixing in the distance, the photo was taken. All photographs were taken in constant ambient light. The pupillary latency was such that the flash will not affect pupillary diameter. […] Development of the print for the recommended length of time (approximately one (1) minute, varying with ambient temperature) will produce a one-to-one photograph of the volunteer's midface, with the pupils at the top of the print. Horizontal pupillary diameter is then measured using a simple plus magnifier with a built-in reticule calibrated to 0.1 millimeter. Only the left eye was used to measure pupillary effects at each time period specified in the protocol. • b. A Modified Specific Drug Effect Questionnaire. […] The present questionnaire consisted of 10 items rated by the subject 10 minutes prior to blood sampling. The item is related to signs of opiate agonist drugs and was as follows: Subject questions: 1) do you feel any effects from the drugs?, 2) does your skin feel itchy?, 3) do you feel relaxed?, 4) do you feel sleepy?, 5) do you feel drunk?, 6) do you feel nervous?, 7) do you feel full of energy?, 8) do you feel you need to talk?, 9) do you feel sick to your stomach?, 10) do you feel dizzy? The subject then rated the item by placing a vertical mark along a 100 mm visual analog scale (VAS) anchored on one end by “not at all” and at the other end by “an awful lot”."}, "[7]": {"tested_on": "precipitated withdrawal / subjective effects of hydrocodone", "assay": "Example 3: precipitated withdrawal in morphine dependent volunteers receiving hydrocodone 30 mg and naltrexone oral solution", "format": "in vivo, human"}, "[8]": {"tested_on": "opioid agonist effects of hydrocodone", "assay": "Example 2: ratio of oral naltrexone to oral hydrocodone, ten-period crossover (VAS drug effect, pupil diameter)", "format": "in vivo, human", "protocol": "All treatments were administered under fasted conditions. […] Subjects were randomly assigned to ten treatment sequences of the ten treatment groups.\nThe fast continued for an additional four (4) hours post-dose.\nAll samples were collected within ±2 minute of the scheduled time."}, "[9]": {"tested_on": "mu over delta sites", "conditions": "cited from earlier work"}, "[10]": {"conditions": "in comparison to a 15 mg dose of hydrocodone"}, "[11]": {"conditions": "15 mg hydrocodone (HYIR/APAP) with increasing doses of naltrexone, range 0 mg-12.8 mg"}, "[12]": {"conditions": "6.4-mg naltrexone dose, hydrocodone 15 mg"}},
  "note": "“Also recorded” adds a separate entry of the source. Where two headings read alike, the source gives them in different places.",
  "data": [
    {"molecule": "C=CCN1CC[C@]23c4c5ccc(O)c4O[C@H]2C(=O)CC[C@@]3(O)[C@H]1C5", "note": "[naloxone]", "values": [
      {"measurement": "block of the effect of 25 mg of heroin", "setting": "[1]; 1 mg intravenously", "value": "completely block"},
      {"measurement": "effect on morphine-like opioid agonist effects", "setting": "[1]; 0.4-0.8 mg intramuscularly or intravenously in man", "value": "prevent or promptly reverse"}
    ]},
    {"molecule": "CN1CC[C@]23c4c5ccc(O)c4O[C@H]2[C@@H](O)C=C[C@H]3[C@H]1C5.O=S(=O)(O)O", "note": "[morphine sulphate]", "values": [
      {"measurement": "oral hydrocodone dose equivalent to 15 mg i.m.", "setting": "[2]; 15 mg i.m.", "value": 30, "unit": "mg"}
    ]},
    {"molecule": "COc1ccc2c3c1O[C@H]1[C@@H](O)C=C[C@H]4[C@@H](C2)N(C)CC[C@@]341", "note": "[Codeine]", "values": [
      {"measurement": "Equianalgesic Doses of Opioids, Calculated Dose", "setting": "[3]; [10]", "value": 90.0, "unit": "mg"}
    ]},
    {"molecule": "CN1CC[C@]23CCCC[C@H]2[C@H]1Cc1ccc(O)cc13", "note": "[Levorphanol]", "values": [
      {"measurement": "Equianalgesic Doses of Opioids, Calculated Dose", "setting": "[3]; [10]", "value": 1.8, "unit": "mg"}
    ]},
    {"molecule": "Meperidine", "values": [
      {"measurement": "Equianalgesic Doses of Opioids, Calculated Dose", "setting": "[3]; [10]", "value": 135.0, "unit": "mg"}
    ]},
    {"molecule": "COc1ccc2c3c1O[C@H]1C(=O)CC[C@@]4(O)[C@@H](C2)N(C)CC[C@]314", "note": "[Oxycodone]", "values": [
      {"measurement": "Equianalgesic Doses of Opioids, Calculated Dose", "setting": "[3]; [10]", "value": 13.5, "unit": "mg"}
    ]},
    {"molecule": "CC(=O)Nc1ccc(O)cc1", "note": "[acetaminophen]", "values": [
      {"measurement": "solubility in water", "setting": "[4]", "value": "only poorly soluble in water"}
    ]},
    {"molecule": "CN1CC[C@]23c4c5ccc(O)c4O[C@H]2[C@@H](O)C=C[C@H]3[C@H]1C5", "note": "[Morphine]", "values": [
      {"measurement": "Equianalgesic Doses of Opioids, Calculated Dose", "setting": "[3]; in vivo", "value": 27.0, "unit": "mg"}
    ]},
    {"molecule": "C[C@H]1[C@H]2Cc3ccc(O)cc3[C@]1(C)CCN2CC1CC1", "note": "[cyclazocine]", "values": [
      {"measurement": "duration of action after oral doses", "setting": "[5]", "value": "~24", "unit": "h"}
    ]},
    {"molecule": "COc1ccc2c3c1OC1C(=O)CC[C@H]4[C@@H](C2)N(C)CC[C@]314", "note": "(stereo partly drawn) [Hydrocodone, 4,5-epoxy-3-methoxy-17-methylmorphinan-6-one]", "values": [
      {"measurement": "pupillary constriction", "setting": "[6]; hydrocodone 15 mg plus naltrexone placebo", "value": "most pupillary constriction"},
      {"measurement": "onset of effect", "setting": "[7]; in combination with naltrexone", "value": "< 0.5", "unit": "h"},
      {"measurement": "Equianalgesic Doses of Opioids, Calculated Dose", "setting": "[3]; [10]", "value": 15.0, "unit": "mg"},
      {"measurement": "relative analgesic potency versus oral morphine", "setting": "[2]; in vivo, po", "value": "about two times"}
    ]},
    {"molecule": "O=C1CC[C@@]2(O)[C@H]3Cc4ccc(O)c5c4[C@@]2(CCN3CC2CC2)[C@H]1O5", "note": "[naltrexone]", "values": [
      {"measurement": "drug effect VAS score", "setting": "[8]; [11]", "value": "overall decrease"},
      {"measurement": "pupillary constriction / pupil diameter", "setting": "[8]; [11]", "value": "decrease in pupillary constriction; also recorded: increase in pupil diameter"},
      {"measurement": "antagonism of the 15 mg hydrocodone dose", "setting": "[8]; approximately 0.4 mg naltrexone", "value": "minimally antagonized"},
      {"measurement": "effect of the hydrocodone dose", "setting": "[8]; naltrexone dosages above 0.4 mg", "value": "increasing diminution"},
      {"measurement": "block of the opioid effect (VAS drug effect) of hydrocodone", "setting": "[6]; [12]", "value": "not completely blocked"},
      {"measurement": "block of the pupillary constriction of hydrocodone", "setting": "[6]; [12]", "value": "not completely blocked"},
      {"measurement": "antagonism of hydrocodone-induced pupillary constriction, relation to dose", "setting": "[6]; naltrexone 3.2 and 6.4 mg with hydrocodone 15 mg, FIG. 2", "value": "dose-response effect"},
      {"measurement": "antagonism of hydrocodone-induced VAS drug effect, relation to dose", "setting": "[6]; naltrexone oral solution 3.2 and 6.4 mg with hydrocodone 15 mg, FIG. 1", "value": "dose-response effect"},
      {"measurement": "precipitated withdrawal (abstinence)", "setting": "[7]; naltrexone 1 and 2 mg with hydrocodone 30 mg, first protocol", "value": "slight abstinence"},
      {"measurement": "subjective experience of hydrocodone on addition of naltrexone", "setting": "[7]; physically dependent subjects, hydrocodone 30 mg", "value": "decreased the favorable subjective experience of hydrocodone"},
      {"measurement": "blocking action, receptor preference", "setting": "[9]", "value": "strong preferential blocking action against mu over delta sites"},
      {"measurement": "effect on opioid agonist effects of 25 mg intravenous heroin challenge", "setting": "[1]; 50 mg given 24 hours prior to challenge", "value": "completely blocked or attenuated"}
    ]},
    {"molecule": "CCC(=O)C(CC(C)N(C)C)(c1ccccc1)c1ccccc1", "note": "(stereo not drawn) [Methadone]", "values": [
      {"measurement": "Equianalgesic Doses of Opioids, Calculated Dose", "setting": "[3]; [10]", "value": 9.0, "unit": "mg"}
    ]}
  ]
}
